Test results as given in patent publication US20240116912A1, “COMPOUNDS AND METHODS FOR MODULATING FXR” (Terns Pharmaceuticals, Inc., priority 2020, published 2024).

Key:
[1] = biological target: ligand binding domain (LBD) of recombinant human FXR (Homo sapiens (Human), UniProt Q96RI1); test: FXR cell free coactivator (SRC-1) recruitment assay, TR-FRET; conditions: FXR LBD (amino acids 244-476) with labeled SRC-1 domain, 25° C. for 60 minutes, activity relative to CDCA maximum; read-out: EC50 FXR- Biochemical TR-FRET/μM
Chain of ligand binding domain (LBD) of recombinant human FXR (Q96RI1 254-486): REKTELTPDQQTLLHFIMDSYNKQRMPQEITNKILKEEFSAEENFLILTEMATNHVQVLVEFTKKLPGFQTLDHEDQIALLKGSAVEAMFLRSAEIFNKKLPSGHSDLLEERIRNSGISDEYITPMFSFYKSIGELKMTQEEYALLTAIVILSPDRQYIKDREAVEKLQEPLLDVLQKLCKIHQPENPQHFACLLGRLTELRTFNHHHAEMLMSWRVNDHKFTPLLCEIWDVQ
Chain of ligand binding domain (LBD) of recombinant human FXR (Q15788 whole entry partner, the tested form may be a part): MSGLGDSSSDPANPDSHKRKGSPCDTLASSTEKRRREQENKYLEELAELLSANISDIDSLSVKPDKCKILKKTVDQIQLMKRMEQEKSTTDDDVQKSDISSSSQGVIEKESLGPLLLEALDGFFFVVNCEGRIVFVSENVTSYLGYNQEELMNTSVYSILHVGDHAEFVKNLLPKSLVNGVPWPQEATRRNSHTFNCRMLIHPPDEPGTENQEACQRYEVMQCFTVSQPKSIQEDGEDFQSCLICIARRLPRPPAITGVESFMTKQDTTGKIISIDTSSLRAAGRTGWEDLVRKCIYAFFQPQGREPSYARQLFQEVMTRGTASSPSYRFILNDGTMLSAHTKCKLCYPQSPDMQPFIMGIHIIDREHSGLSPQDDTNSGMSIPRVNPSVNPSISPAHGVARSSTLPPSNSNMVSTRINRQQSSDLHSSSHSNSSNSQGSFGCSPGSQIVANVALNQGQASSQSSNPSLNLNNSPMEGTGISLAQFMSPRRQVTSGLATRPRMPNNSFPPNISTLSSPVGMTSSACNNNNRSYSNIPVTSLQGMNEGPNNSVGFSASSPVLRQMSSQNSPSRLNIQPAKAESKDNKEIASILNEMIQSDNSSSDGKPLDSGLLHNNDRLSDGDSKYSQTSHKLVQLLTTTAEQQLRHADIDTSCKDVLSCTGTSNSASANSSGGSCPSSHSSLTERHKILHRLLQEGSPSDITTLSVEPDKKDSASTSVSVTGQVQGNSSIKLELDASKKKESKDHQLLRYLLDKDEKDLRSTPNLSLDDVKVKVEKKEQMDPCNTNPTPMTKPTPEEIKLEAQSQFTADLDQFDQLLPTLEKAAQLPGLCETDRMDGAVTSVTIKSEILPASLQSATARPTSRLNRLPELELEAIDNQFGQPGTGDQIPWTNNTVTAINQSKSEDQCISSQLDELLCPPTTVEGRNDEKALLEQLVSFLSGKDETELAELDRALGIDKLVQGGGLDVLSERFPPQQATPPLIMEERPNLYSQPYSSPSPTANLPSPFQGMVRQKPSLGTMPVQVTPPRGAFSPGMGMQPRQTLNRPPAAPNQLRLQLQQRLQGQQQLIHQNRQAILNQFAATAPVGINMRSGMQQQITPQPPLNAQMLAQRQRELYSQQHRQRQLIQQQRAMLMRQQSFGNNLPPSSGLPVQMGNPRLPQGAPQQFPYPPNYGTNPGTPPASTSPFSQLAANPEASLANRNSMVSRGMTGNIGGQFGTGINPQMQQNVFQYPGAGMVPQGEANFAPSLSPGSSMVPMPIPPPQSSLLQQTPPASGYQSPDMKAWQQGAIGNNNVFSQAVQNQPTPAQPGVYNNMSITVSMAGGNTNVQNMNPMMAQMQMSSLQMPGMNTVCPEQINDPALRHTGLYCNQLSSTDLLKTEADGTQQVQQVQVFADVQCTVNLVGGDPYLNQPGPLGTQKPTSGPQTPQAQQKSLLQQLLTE
Procedure, shortened: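 Purified SF9-expressed FXR LBD (aa 244-476) was incubated with compounds (0-10 micromolar) and labeled SRC-1 interaction domain in TR-FRET coregulator buffer G, 60 min at 25° C, 1.2% DMSO. Activity at each concentration was taken as percent of maximal CDCA response to build dose-response curves.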

[2] = biological target: full length human FXR protein (Homo sapiens (Human), UniProt Q96RI1); test: FXR cellular assay (FXR-SRCP β-gal enzyme fragment complementation in CHO-K1 cells, chemiluminescence); format: cell-based; conditions: CHO-K1 cells with SRCP-EA and ProLink-labeled FXR, 0-10 micromolar compound, 37° C. for 6h, read-out: EC50 FXR-cell Luminescence/
Chain of full length human FXR protein (Q96RI1 whole entry, the tested form may be a part): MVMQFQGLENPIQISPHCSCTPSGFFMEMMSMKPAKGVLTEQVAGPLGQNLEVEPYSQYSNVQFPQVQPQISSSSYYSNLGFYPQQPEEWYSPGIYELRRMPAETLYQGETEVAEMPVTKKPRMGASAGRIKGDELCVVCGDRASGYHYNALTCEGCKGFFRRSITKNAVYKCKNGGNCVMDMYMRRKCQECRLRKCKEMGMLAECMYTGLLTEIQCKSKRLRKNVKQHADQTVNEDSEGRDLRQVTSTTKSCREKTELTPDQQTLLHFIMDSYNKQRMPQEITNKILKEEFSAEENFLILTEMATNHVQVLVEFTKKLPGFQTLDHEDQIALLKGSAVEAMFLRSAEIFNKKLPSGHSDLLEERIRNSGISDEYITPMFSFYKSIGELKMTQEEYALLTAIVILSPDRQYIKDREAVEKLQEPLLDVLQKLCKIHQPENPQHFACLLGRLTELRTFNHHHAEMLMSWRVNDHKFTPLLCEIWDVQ
Procedure, shortened: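 CHO-K1 cells stably expressing ProLink-tagged full-length FXR and SRCP-EA treated with compound (0-10 micromolar, 1% DMSO) for 6 h at 37 °C. Ligand-driven FXR-coactivator binding reconstitutes β-gal; chemiluminescence read after 1 h detection reagent at room temperature.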

EC50 [1]: 3.18 µM
EC50 [2]: 1.13 µM
Compound: O=C(c1noc(=O)[nH]1)N1CCC(OCc2c(-c3c(Cl)cccc3Cl)noc2C2CC2)CC1 [Example 1, 3-(4-((5-cyclopropyl-3-(2,6-dichlorophenyl)isoxazol-4-yl)methoxy)piperidine-1-carbonyl)-1,2,4-oxadiazol-5(4H)-one]
